Pest or weed control data for six compounds are collected here from US8530667B2, “Herbicides” (Syngenta Limited, priority 2007, dated 2013).

Assay type in all cases: in vivo
In test [1] the test system is Amaranthus retoflexus (AMARE). The experiment in a line: Example B post-emergence herbicidal activity, glasshouse pot test. Particulars: Amaranthus retroflexus, 312 h, rate 1000 g/ha, evaluated after 13 days, read-out: Post-emergence activity AMARE (100=total damage to plant; 0=no damage to plant). The essentials:
(§1)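 Visual damage (0 = no damage, 100 = total damage) read 13 days after spraying. Application was to pots 1 day (pre-emergence) or 8 days (post-emergence) after sowing, as an aqueous spray from acetone/water (50:50) with 0.5% Tween 20.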

Test [2] relates to Setaria faberi (SETFA). The test is described as above. Particulars: 312 h, rate 1000 g/ha, evaluated after 13 days, read-out: Post-emergence activity SETFA (100=total damage to plant; 0=no damage to plant). An outline of the steps: as §1
Test [3] has as its system Alopecurus myosuroides (ALOMY). Described as above. Particulars: 312 h, rate 1000 g/ha, evaluated after 13 days, read-out: Post-emergence activity ALOMY (100=total damage to plant; 0=no damage to plant). An outline of the steps:
as §1

Test [4] concerns Echinochloa crus-galli (ECHCG). The description is as above. The conditions noted are these: 312 h, rate 1000 g/ha, evaluated after 13 days, read-out: Post-emergence activity ECHCG (100=total damage to plant; 0=no damage to plant). The essentials:
as §1

The test system of test [5] is Avena fatua (AVEFA). The test is described as above. The conditions noted are these: 312 h, rate 1000 g/ha, evaluated after 13 days, read-out: Post-emergence activity AVEFA (100=total damage to plant; 0=no damage to plant). The essentials: as §1
Test [6] has as its system Digitaria sanguinalis (DIGSA). The experiment in a line: Example A pre-emergence herbicidal activity, glasshouse pot test. The conditions noted are these: evaluated 19 or 20 days later, read-out: Pre-Emergence Activity DIGSA (100=total damage to plant; 0=no damage to plant); for pest or weed control at 250 g/ha: Rate 250 g/ha. As to the method: (§2) Seeds of a variety of test species were sown in standard soil in pots. After cultivation for one day (pre-emergence) or after 10 days cultivation (post-emergence) under controlled conditions in a glasshouse, the plants were sprayed with an aqueous spray solution derived from the formulation of the technical active ingredient in 0.6 ml acetone and 45 ml formulation solution containing 10.6% Emulsogen EL (Registry number 61791-12-6), 42.2% N-methylpyrrolidone, 42.2% dipropylene glycol monomethyl ether (Registry number 34590-94-8) and 0.2% X-77 (Registry number 11097-66-8). The test plants were then grown in a greenhouse under optimum conditions until, 14 or 15 days later for post-emergence and 19 or 20 days for pre-emergence, the test was evaluated (100=total damage to plant; 0=no damage to plant). Alopecurus myosuroides (ALOMY), Avena fatua (AVEFA), Lolium perenne (LOLPE), Setaria faberi (SETFA), Digitaria sanguinalis (DIGSA), Echinochloa crus-galli (ECHCG)

For test [7], the system named is Setaria faberi (SETFA). The test is described as above. The conditions noted are these: evaluated 19 or 20 days later, read-out: Pre-Emergence Activity SETFA (100=total damage to plant; 0=no damage to plant); for pest or weed control at 250 g/ha: Rate 250 g/ha. The protocol: as §2
Test [8] deals with Alopecurus myosuroides (ALOMY). Described as above. The conditions noted are these: evaluated 19 or 20 days later, read-out: Pre-Emergence Activity ALOMY (100=total damage to plant; 0=no damage to plant); for pest or weed control at 250 g/ha: Rate 250 g/ha. The protocol: as §2
Test [9] concerns Lolium perenne (LOLPE). Described as above. Particulars: evaluated 19 or 20 days later, read-out: Pre-Emergence Activity LOLPE (100=total damage to plant; 0=no damage to plant); for pest or weed control at 250 g/ha: Rate 250 g/ha. The protocol:
as §2

In test [10] the test system is Echinochloa crus-galli (ECHCG). Described as above. The conditions noted are these: evaluated 19 or 20 days later, read-out: Pre-Emergence Activity ECHCG (100=total damage to plant; 0=no damage to plant); for pest or weed control at 250 g/ha: Rate 250 g/ha. As to the method: as §2
The subject of test [11] is Avena fatua (AVEFA). The test is described as above. The conditions noted are these: evaluated 19 or 20 days later, read-out: Pre-Emergence Activity AVEFA (100=total damage to plant; 0=no damage to plant); for pest or weed control at 250 g/ha: Rate 250 g/ha. As to the method: as §2
Test [12] has as its system Digitaria sanguinalis (DIGSA). Put plainly: Example A post-emergence herbicidal activity, glasshouse pot test. The conditions noted are these: Rate 125 g/ha, evaluated 14 or 15 days later, read-out: Post-Emergence Activity DIGSA (100=total damage to plant; 0=no damage to plant). As to the method:
as §2

Test [13] concerns Setaria faberi (SETFA). Described as above. Particulars: Rate 125 g/ha, evaluated 14 or 15 days later, read-out: Post-Emergence Activity SETFA (100=total damage to plant; 0=no damage to plant). The protocol: as §2
Test [14] relates to Alopecurus myosuroides (ALOMY). Described as above. Particulars: Rate 125 g/ha, evaluated 14 or 15 days later, read-out: Post-Emergence Activity ALOMY (100=total damage to plant; 0=no damage to plant). The protocol: as §2
The test system of test [15] is Lolium perenne (LOLPE). Described as above. Particulars: Rate 125 g/ha, evaluated 14 or 15 days later, read-out: Post-Emergence Activity LOLPE (100=total damage to plant; 0=no damage to plant). The protocol: as §2
Test [16] relates to Echinochloa crus-galli (ECHCG). The description is as above. The conditions noted are these: Rate 125 g/ha, evaluated 14 or 15 days later, read-out: Post-Emergence Activity ECHCG (100=total damage to plant; 0=no damage to plant). The protocol: as §2
Test [17] relates to Avena fatua (AVEFA). The test is described as above. Particulars: Rate 125 g/ha, evaluated 14 or 15 days later, read-out: Post-Emergence Activity AVEFA (100=total damage to plant; 0=no damage to plant). The protocol:
as §2

With `COc1ccc(-c2nc(C3C(=O)[C@@H]4[C@H](C3=O)[C@H]3CC[C@@H]4O3)c(C)s2)cc1` (some centres unmarked) [Compound T21], the pest or weed control at 1000 g/ha in [1] was determined as 0%; with Setaria faberi (SETFA) [2], 100%; in test [3] it was 100%; in test [4], 100%; in the test with Avena fatua (AVEFA) [5], 100%. The pest or weed control at 250 g/ha in test [6] was determined as 100%; with Setaria faberi (SETFA) [7], 100%; in test [8] it was 90%; with Lolium perenne (LOLPE) [9], 90%; in test [10] it was 100%; in the test with Avena fatua (AVEFA) [11] it was 70%. For the same compound, the pest or weed control at 125 g/ha came to 80% in [12]; 80% in the test with Setaria faberi (SETFA) [13]; 50% in [14]; 40% in the test on Lolium perenne (LOLPE) [15]; 100% in [16]; 20% in the test with Avena fatua (AVEFA) [17].

Turning to `CCc1sc(-c2ccc(Cl)cc2)nc1C1C(=O)[C@@H]2[C@H](C1=O)[C@H]1CC[C@@H]2O1` (some centres unmarked) [Compound T23, 4-[2-(4-chloro-phenyl)-5-ethyl-thiazol-4-yl]-10-oxa-tricyclo[5.2.1.0*2,6*]decane-3,5-dione], the pest or weed control at 500 g/ha amounted to 100% in test [6] (Rate 500 g/ha); 100% with Setaria faberi (SETFA) [7] (Rate 500 g/ha); 100% in test [8] (Rate 500 g/ha); 90% with Lolium perenne (LOLPE) [9] (Rate 500 g/ha); 100% in [10] (Rate 500 g/ha); 90% in the test on Avena fatua (AVEFA) [11] (Rate 500 g/ha). The pest or weed control at 125 g/ha (in test [12]; with Setaria faberi (SETFA) [13]; in [14]; in the test on Lolium perenne (LOLPE) [15]; in test [16]; with Avena fatua (AVEFA) [17]) was 100% throughout.

With `Cc1sc(-c2ccc(Cl)cc2)nc1C1C(=O)[C@@H]2[C@H](C1=O)[C@@]1(C)CC[C@]2(C)O1` (some centres unmarked) [Compound T26], the pest or weed control at 250 g/ha is 100% in test [6]; 100% in the test on Setaria faberi (SETFA) [7]; 90% in test [8]; 70% with Lolium perenne (LOLPE) [9]; 80% in test [10]; 60% with Avena fatua (AVEFA) [11]. For the same compound, the pest or weed control at 125 g/ha in [12] is 30%; in the test on Setaria faberi (SETFA) [13] it was 0%; in test [14], 10%; in the test on Lolium perenne (LOLPE) [15] it was 0%; in test [16], 0%; in the test on Avena fatua (AVEFA) [17], 0%.

For `CCc1sc(-c2ccc(Cl)cc2)nc1C1C(=O)[C@@H]2[C@H](C1=O)[C@@]1(C)CC[C@]2(C)O1` (some centres unmarked) [Compound T27], the pest or weed control at 250 g/ha in [6] came to 100%; in the test on Setaria faberi (SETFA) [7] it was 100%; in test [8] it was 70%; in the test on Lolium perenne (LOLPE) [9], 90%; in test [10], 70%; in the test with Avena fatua (AVEFA) [11], 60%. Also, the pest or weed control at 125 g/ha in [12] was 100%; in the test on Setaria faberi (SETFA) [13], 80%; in test [14] it was 80%; in the test with Lolium perenne (LOLPE) [15], 40%; in test [16], 100%; in the test on Avena fatua (AVEFA) [17] it was 90%.

On to `Cc1sc(-c2ccc(Br)cc2)nc1C1C(=O)[C@@H]2[C@H](C1=O)[C@H]1CC[C@@H]2O1` (some centres unmarked) [Compound T28], for which the pest or weed control at 250 g/ha (in test [6]; in the test with Setaria faberi (SETFA) [7]; in test [8]; in the test with Lolium perenne (LOLPE) [9]; in test [10]; in the test on Avena fatua (AVEFA) [11]) was 100% in each case. Moreover, the pest or weed control at 125 g/ha came to 100% in test [12]; 80% in the test with Setaria faberi (SETFA) [13]; 70% in [14]; 50% in the test with Lolium perenne (LOLPE) [15]; 100% in [16]; 70% with Avena fatua (AVEFA) [17].

Consider `Cc1sc(-c2ccc(Cl)nc2)nc1C1C(=O)[C@@H]2[C@H](C1=O)[C@H]1CC[C@@H]2O1` (some centres unmarked) [Compound T30], for which the pest or weed control at 250 g/ha stood at 60% in [6]; 70% with Setaria faberi (SETFA) [7]; 10% in test [8]; 40% in the test with Lolium perenne (LOLPE) [9]; 80% in test [10]; 30% with Avena fatua (AVEFA) [11]. Moreover, the pest or weed control at 125 g/ha turned out to be 70% in test [12]; 40% in the test with Setaria faberi (SETFA) [13]; 0% in [14]; 20% with Lolium perenne (LOLPE) [15]; 70% in test [16]; 10% in the test with Avena fatua (AVEFA) [17].
